Data on six molecules can be found in PubChem BioAssay AID2060338 (Molecular Pharmacology Branch, DTP, NCI, 2025).

Each structure is given as a SMILES string. Several values for one entry are separate records, joined by “and”; a condition that tells them apart may be missing. Equal values may be shown once.

The test system of the assay is 556581-035-R-J1-PDC spheroids with HUVEC/MSC, viability. The experiment in a line: Anticancer human tumor 556581-035-R-J1-PDC patient-derived ovarian carcinoma cell line growth inhibition [IpAb]. The settings on record: for viability, T/C: stronger effect = lower value. The method in brief: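 Combinations with ipatasertib or abemaciclib were tested on tumour spheroids holding HUVEC (25%) and MSC (15%) alongside 60% malignant cells. Top concentration was at or near clinical Cmax (10 microM if undefined), descending in half-log steps.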

The mark [1] stands for this setting: curve of first compound, second compound 0.01 µM.
[2] abbreviates: curve of first compound, second compound 0.0316 µM.
[3] abbreviates: curve of first compound, second compound 0.1 µM.
The mark [4] stands for this setting: curve of first compound, second compound 0.316 µM.
[5] abbreviates: curve of first compound, second compound 1 µM.
The mark [6] stands for this setting: second compound 0.1 µM, first compound 0.0316 µM.
The mark [7] stands for this setting: second compound 0.1 µM, first compound 0.1 µM.
The mark [8] stands for this setting: second compound 0.1 µM, first compound 0.316 µM.
The mark [9] stands for this setting: second compound 0.1 µM, first compound 1 µM.
[10] abbreviates: second compound 0.1 µM, first compound 3.16 µM.
[11] abbreviates: second compound 0.1 µM, first compound 10 µM.
[12] abbreviates: second compound 0.316 µM, first compound 0.0316 µM.
Setting [13] is: second compound 0.316 µM, first compound 0.1 µM.
[14] abbreviates: second compound 0.316 µM, first compound 0.316 µM.
Where [15] appears, read: second compound 0.316 µM, first compound 1 µM.
Setting [16] is: second compound 0.316 µM, first compound 3.16 µM.
Setting [17] is: second compound 0.316 µM, first compound 10 µM.
Setting [18] is: second compound 1 µM, first compound 0.0316 µM.
Where [19] appears, read: second compound 1 µM, first compound 0.1 µM.
Setting [20] is: second compound 1 µM, first compound 0.316 µM.
Setting [21] is: second compound 1 µM, first compound 1 µM.
[22] abbreviates: second compound 1 µM, first compound 3.16 µM.
[23] abbreviates: second compound 1 µM, first compound 10 µM.
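Further: spheroids exposed to compounds for 7 days before readout.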

As for `CCCS(=O)(=O)Nc1ccc(F)c(C(=O)c2c[nH]c3ncc(-c4ccc(Cl)cc4)cc23)c1F` + CCN1CCN(Cc2ccc(Nc3ncc(F)c(-c4cc(F)c5nc(C)n(C(C)C)c5c4)n3)nc2)CC1, the IC50 was > 10000 nM under setting [1]; > 10000 nM under setting [2]; > 10000 nM under setting [3]; > 10000 nM under setting [4]; > 10000 nM under setting [5]. Besides, the viability, T/C (second compound 0.01 µM, first compound 0.0316 µM) was 114%; the viability, T/C (second compound 0.01 µM, first compound 0.1 µM) was 106%; the viability, T/C (second compound 0.01 µM, first compound 0.316 µM) was 123%; the viability, T/C (second compound 0.01 µM, first compound 1 µM) was 116%; the viability, T/C (second compound 0.01 µM, first compound 3.16 µM) is 129%; the viability, T/C (second compound 0.01 µM, first compound 10 µM) is 71.9%. In addition, the viability, T/C (second compound 0.0316 µM, first compound 0.0316 µM) is 99%; the viability, T/C (second compound 0.0316 µM, first compound 0.1 µM) was 97.2%; the viability, T/C (second compound 0.0316 µM, first compound 0.316 µM) is 109%; the viability, T/C (second compound 0.0316 µM, first compound 1 µM) is 104%; the viability, T/C (second compound 0.0316 µM, first compound 3.16 µM) was 110%; the viability, T/C (second compound 0.0316 µM, first compound 10 µM) was 60.9%. For the same molecule, the viability, T/C under setting [6] is 128%; the viability, T/C under setting [7] is 113%; the viability, T/C under setting [8] is 123%; the viability, T/C under setting [9] was 104%; the viability, T/C under setting [10] is 100%; the viability, T/C under setting [11] is 61%. Moreover, the viability, T/C is, setting by setting: under setting [12], 105%; under setting [13], 98.4%; under setting [14], 99.1%; under setting [15], 93.9%; under setting [16], 77.6%; under setting [17], 57.6%. For the same molecule, the viability, T/C under setting [18] is 67.7%; the viability, T/C under setting [19] is 54.9%; the viability, T/C under setting [20] was 73.1%; the viability, T/C under setting [21] was 61%; the viability, T/C under setting [22] is 57.2%; the viability, T/C under setting [23] was 59.8%.

For `CC(C)(C)c1cnc(CSc2cnc(NC(=O)C3CCNCC3)s2)o1`, the viability, T/C reads like this: (compound 0.00949 µM) 104% and 105%; (compound 0.03 µM) 116% and 106%; (compound 0.0949 µM) 62.5% and 81%; (compound 0.3 µM) 2.65% and 4.27%; (compound 0.949 µM) 3.19% and 3.08%; (compound 3 µM) 4.63% and 2.13%. For the setting “curve of compound”, the IC50 is 121 nM and 151 nM.

For `Cn1cnc2c(F)c(Nc3ccc(Br)cc3Cl)c(C(=O)NOCCO)cc21` + CCN1CCN(Cc2ccc(Nc3ncc(F)c(-c4cc(F)c5nc(C)n(C(C)C)c5c4)n3)nc2)CC1, the IC50 worked out at 876 nM under setting [1]; 1130 nM under setting [2]; 870 nM under setting [3]; 1170 nM under setting [4]; 1210 nM under setting [5]. In addition, the viability, T/C was 118% (second compound 0.01 µM, first compound 0.00949 µM); 111% (second compound 0.01 µM, first compound 0.03 µM); 108% (second compound 0.01 µM, first compound 0.0949 µM); 78.7% (second compound 0.01 µM, first compound 0.3 µM); 49% (second compound 0.01 µM, first compound 0.949 µM); 18.8% (second compound 0.01 µM, first compound 3 µM). In addition, the viability, T/C (second compound 0.0316 µM, first compound 0.00949 µM) is 102%; the viability, T/C (second compound 0.0316 µM, first compound 0.03 µM) was 121%; the viability, T/C (second compound 0.0316 µM, first compound 0.0949 µM) is 110%; the viability, T/C (second compound 0.0316 µM, first compound 0.3 µM) is 73.4%; the viability, T/C (second compound 0.0316 µM, first compound 0.949 µM) is 62.4%; the viability, T/C (second compound 0.0316 µM, first compound 3 µM) was 14.3%. Further, the viability, T/C (second compound 0.1 µM, first compound 0.00949 µM) was 97.7%; the viability, T/C (second compound 0.1 µM, first compound 0.03 µM) was 95.1%; the viability, T/C (second compound 0.1 µM, first compound 0.0949 µM) was 98.6%; the viability, T/C (second compound 0.1 µM, first compound 0.3 µM) is 84%; the viability, T/C (second compound 0.1 µM, first compound 0.949 µM) is 47.4%; the viability, T/C (second compound 0.1 µM, first compound 3 µM) is 17.8%. In addition, the viability, T/C by setting is: (second compound 0.316 µM, first compound 0.00949 µM) 102%; (second compound 0.316 µM, first compound 0.03 µM) 102%; (second compound 0.316 µM, first compound 0.0949 µM) 104%; (second compound 0.316 µM, first compound 0.3 µM) 87.1%; (second compound 0.316 µM, first compound 0.949 µM) 56.8%; (second compound 0.316 µM, first compound 3 µM) 22.4%. Moreover, the viability, T/C runs as follows: (second compound 1 µM, first compound 0.00949 µM) 48%; (second compound 1 µM, first compound 0.03 µM) 62%; (second compound 1 µM, first compound 0.0949 µM) 59%; (second compound 1 µM, first compound 0.3 µM) 63.7%; (second compound 1 µM, first compound 0.949 µM) 58.6%; (second compound 1 µM, first compound 3 µM) 20.1%.

With `CCN1CCN(Cc2ccc(Nc3ncc(F)c(-c4cc(F)c5nc(C)n(C(C)C)c5c4)n3)nc2)CC1`, under “compound 1 µM”, the viability, T/C is 52.7% [middle of 13 runs].

Regarding `Cn1nccc1Nc1nccc(-c2ccn(C(CO)c3ccc(Cl)c(F)c3)c(=O)c2)n1` (stereo not given), the viability, T/C is, setting by setting: (compound 0.0316 µM) 114% and 133%; (compound 0.1 µM) 117% and 135%; (compound 0.316 µM) 103% and 124%; (compound 1 µM) 86.2% and 104%; (compound 3.16 µM) 61.3% and 88.7%; (compound 10 µM) 17.8% and 38.4%. Moreover, where the note is “curve of compound”, the 50% inhibitory concentration (IC50) was 4160 nM and 7690 nM.

`Cn1nccc1Nc1nccc(-c2ccn(C(CO)c3ccc(Cl)c(F)c3)c(=O)c2)n1` (stereo not given) + CC(C)NCC(C(=O)N1CCN(c2ncnc3c2C(C)CC3O)CC1)c1ccc(Cl)cc1: the IC50 runs as follows: under setting [3], 2480 nM; under setting [4], 2330 nM; under setting [5], 165 nM; (curve of first compound, second compound 3.16 µM) < 31.6 nM; (curve of first compound, second compound 10 µM) < 31.6 nM. The viability, T/C runs as follows: under setting [6], 94.8%; under setting [7], 75.4%; under setting [8], 71.8%; under setting [9], 62.4%; under setting [10], 50.2%; under setting [11], 31.3%. Also, the viability, T/C runs as follows: under setting [12], 61.6%; under setting [13], 79.6%; under setting [14], 60.1%; under setting [15], 51.5%; under setting [16], 52.2%; under setting [17], 13.2%. Further, the viability, T/C runs as follows: under setting [18], 55.8%; under setting [19], 61.6%; under setting [20], 41%; under setting [21], 29.3%; under setting [22], 24.8%; under setting [23], 9.12%. Further, the viability, T/C by setting is: (second compound 3.16 µM, first compound 0.0316 µM) 48.4%; (second compound 3.16 µM, first compound 0.1 µM) 36.4%; (second compound 3.16 µM, first compound 0.316 µM) 38.1%; (second compound 3.16 µM, first compound 1 µM) 22.7%; (second compound 3.16 µM, first compound 3.16 µM) 11.6%; (second compound 3.16 µM, first compound 10 µM) 5.62%. Moreover, the viability, T/C reads like this: (second compound 10 µM, first compound 0.0316 µM) 35.7%; (second compound 10 µM, first compound 0.1 µM) 31.3%; (second compound 10 µM, first compound 0.316 µM) 27.8%; (second compound 10 µM, first compound 1 µM) 17.6%; (second compound 10 µM, first compound 3.16 µM) 12.3%; (second compound 10 µM, first compound 10 µM) 1.97%.

One may read the IC50 as the concentration that gives 50% inhibition. The term viability, T/C denotes the result in the treated group divided by that in the control group, in per cent.
